Data: patent US8192962B2, “Processes for detecting toxic substances” (Daikin Industries, Ltd., priority 2001, dated 2012)

Columns and labels:
DNA repair protein genes = experiment: DNA chip mRNA expression in yeast, DNA repair protein genes (Table 3); format: cell-based, Saccharomyces cerevisiae S288C; conditions: incubated two hours, concentrations as in the 1st table
Summary of the method: (§1)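 S. cerevisiae S288C grown at 25° C in YPD were exposed in log phase for two hours to one toxic chemical at a growth-inhibiting, non-lethal concentration; untreated cells served as control. Poly(A) mRNA was reverse-transcribed with Cy3/Cy5-dUTP and hybridized to a whole-genome yeast DNA chip at 65° C for over 12 hours; values are fluorescence ratios versus untreated.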

[1] = system: Detoxification protein genes; experiment: DNA chip mRNA expression in yeast, detoxification protein genes (Table 8); format: cell-based, Saccharomyces cerevisiae S288C
Summary of the method: as §1

CCCCC[C@H](O)CC(=O)CCc1ccc(O)c(OC)c1 [(13), gingerol]
The level of expressed mRNA in the presence of chemical substance/The level of expressed mRNA in the absence of chemical substance (DNA repair protein genes; yeast gene YDL200C): 1.1 | The level of expressed mRNA in the presence of chemical substance/The level of expressed mRNA in the absence of chemical substance (DNA repair protein genes; yeast gene YEL019C): 1.0 | The level of expressed mRNA in the presence of chemical substance/The level of expressed mRNA in the absence of chemical substance (DNA repair protein genes; yeast gene YGL058W): 1.0 | The level of expressed mRNA in the presence of chemical substance/The level of expressed mRNA in the absence of chemical substance (DNA repair protein genes; yeast gene YIL072W): 1.4 | The level of expressed mRNA in the presence of chemical substance/The level of expressed mRNA in the absence of chemical substance (DNA repair protein genes; yeast gene YLR233C): 1.0 | The level of expressed mRNA in the presence of chemical substance/The level of expressed mRNA in the absence of chemical substance (DNA repair protein genes; yeast gene YLR288C): 0.7 | The level of expressed mRNA in the presence of chemical substance/The level of expressed mRNA in the absence of chemical substance (DNA repair protein genes; yeast gene YMR284W): 1.0 | The level of expressed mRNA in the presence of chemical substance/The level of expressed mRNA in the absence of chemical substance (DNA repair protein genes; yeast gene YNL312W): 0.7 | The level of expressed mRNA in the presence of chemical substance/The level of expressed mRNA in the absence of chemical substance (DNA repair protein genes; yeast gene YPL164C): 1.0 | The level of expressed mRNA in the presence of chemical substance/The level of expressed mRNA in the absence of chemical substance (DNA repair protein genes; yeast gene YPR025C): 1.1 | The level of expressed mRNA in the presence of chemical substance/The level of expressed mRNA in the absence of chemical substance ([1]; yeast gene YBL064C): 4.1 | The level of expressed mRNA in the presence of chemical substance/The level of expressed mRNA in the absence of chemical substance ([1]; yeast gene YBR244W): 0.4 | The level of expressed mRNA in the presence of chemical substance/The level of expressed mRNA in the absence of chemical substance ([1]; yeast gene YBR293W): 3.0 | The level of expressed mRNA in the presence of chemical substance/The level of expressed mRNA in the absence of chemical substance ([1]; yeast gene YDL168W): 1.3 | The level of expressed mRNA in the presence of chemical substance/The level of expressed mRNA in the absence of chemical substance ([1]; yeast gene YDR256C): 1.1 | The level of expressed mRNA in the presence of chemical substance/The level of expressed mRNA in the absence of chemical substance ([1]; yeast gene YDR453C): 1.4 | The level of expressed mRNA in the presence of chemical substance/The level of expressed mRNA in the absence of chemical substance ([1]; yeast gene YDR538W): 0.7 | The level of expressed mRNA in the presence of chemical substance/The level of expressed mRNA in the absence of chemical substance ([1]; yeast gene YEL027W): 0.7 | The level of expressed mRNA in the presence of chemical substance/The level of expressed mRNA in the absence of chemical substance ([1]; yeast gene YER185W): 2.1 | The level of expressed mRNA in the presence of chemical substance/The level of expressed mRNA in the absence of chemical substance ([1]; yeast gene YFL050C): 1.2 | The level of expressed mRNA in the presence of chemical substance/The level of expressed mRNA in the absence of chemical substance ([1]; yeast gene YGR088W): 1.2 | The level of expressed mRNA in the presence of chemical substance/The level of expressed mRNA in the absence of chemical substance ([1]; yeast gene YGR138C): 0.6 | The level of expressed mRNA in the presence of chemical substance/The level of expressed mRNA in the absence of chemical substance ([1]; yeast gene YGR209C): 1.4 | The level of expressed mRNA in the presence of chemical substance/The level of expressed mRNA in the absence of chemical substance ([1]; yeast gene YHR008C): 1.2 | The level of expressed mRNA in the presence of chemical substance/The level of expressed mRNA in the absence of chemical substance ([1]; yeast gene YHR048W): 1.1 | The level of expressed mRNA in the presence of chemical substance/The level of expressed mRNA in the absence of chemical substance ([1]; yeast gene YIR002C): 1.2 | The level of expressed mRNA in the presence of chemical substance/The level of expressed mRNA in the absence of chemical substance ([1]; yeast gene YJL101C): 1.0 | The level of expressed mRNA in the presence of chemical substance/The level of expressed mRNA in the absence of chemical substance ([1]; yeast gene YKL064W): 1.6 | The level of expressed mRNA in the presence of chemical substance/The level of expressed mRNA in the absence of chemical substance ([1]; yeast gene YKR066C): 0.6 | The level of expressed mRNA in the presence of chemical substance/The level of expressed mRNA in the absence of chemical substance ([1]; yeast gene YKR106W): 1.4 | The level of expressed mRNA in the presence of chemical substance/The level of expressed mRNA in the absence of chemical substance ([1]; yeast gene YLL028W): 4.1 | The level of expressed mRNA in the presence of chemical substance/The level of expressed mRNA in the absence of chemical substance ([1]; yeast gene YLL057C): 1.4 | The level of expressed mRNA in the presence of chemical substance/The level of expressed mRNA in the absence of chemical substance ([1]; yeast gene YLR046C): 1.2 | The level of expressed mRNA in the presence of chemical substance/The level of expressed mRNA in the absence of chemical substance ([1]; yeast gene YML028W): 1.6 | The level of expressed mRNA in the presence of chemical substance/The level of expressed mRNA in the absence of chemical substance ([1]; yeast gene YMR015C): 0.4 | The level of expressed mRNA in the presence of chemical substance/The level of expressed mRNA in the absence of chemical substance ([1]; yeast gene YMR038C): 1.7 | The level of expressed mRNA in the presence of chemical substance/The level of expressed mRNA in the absence of chemical substance ([1]; yeast gene YNL239W): 3.6 | The level of expressed mRNA in the presence of chemical substance/The level of expressed mRNA in the absence of chemical substance ([1]; yeast gene YNL241C): 4.9 | The level of expressed mRNA in the presence of chemical substance/The level of expressed mRNA in the absence of chemical substance ([1]; yeast gene YNL259C): 1.1 | The level of expressed mRNA in the presence of chemical substance/The level of expressed mRNA in the absence of chemical substance ([1]; yeast gene YOL158C): 1.4 | The level of expressed mRNA in the presence of chemical substance/The level of expressed mRNA in the absence of chemical substance ([1]; yeast gene YOR251C): 1.0 | The level of expressed mRNA in the presence of chemical substance/The level of expressed mRNA in the absence of chemical substance ([1]; yeast gene YOR273C): 2.6 | The level of expressed mRNA in the presence of chemical substance/The level of expressed mRNA in the absence of chemical substance ([1]; yeast gene YPR200C): 0.6
